One experiment addresses T1, hSTING (Homo sapiens, UniProt Q86WV6).
T1 construct: host or cells: HEK-Blue ISG cells (HEK293-derived SEAP reporter line)
In words: Inhibition test of intracellular human STING (hSTING) pathways using reporter cells (HEK-Blue ISG, SEAP reporter). Type of experiment: cell-based. Particulars: stimulation with Compound 3 (10 nM), 21 hours; for IC50: read-out: Inhibitory Activity on hSTING. How it is done: Since STING activates the transcription factor IRF3 by ligand stimulation, the activity of STING can be evaluated by a reporter assay using a secreted alkaline phosphatase (SEAP reporter) incorporated downstream of the IRF-inducible promoter. In other words, the hSTING inhibitory activity of the test compounds was evaluated using HEK-Blue™ ISG cells (manufactured by InvivoGen, #hkb-isg-1) into which the SEAP reporter was incorporated. The activation of hSTING was performed by stimulation with the small molecule ligand, Compound 3 as described in the literature (Ramanjulu, J. M., et al., Nature. 2018, 564 (7736), 439-443).
The HEK-Blue™ ISG cells were seeded in 96-well plates and cultured overnight at 37° C. in a 5% CO2 incubator. To each well of the cell culture plates, a test compound solution adjusted to have a final concentration of 0.1 to 10 μM was added and cultured in the CO2 incubator for 1 hour. Then, the Compound 3 (final concentration of 10 nM) was added thereto and further cultured in the CO2 incubator for 21 hours. After collecting the culture supernatant from each well, the reporter activity was measured by luminous reaction of alkaline phosphatase.
Method for Evaluating Inhibitory Activity. Taking the reporter activity in the group without test compounds added and with Compound 3 added as 100% and the reporter activity in the group without test compounds added and without Compound 3 added as 0%, IC50 values were determined by regression analysis of the inhibition rate calculated from the reporter activity at each compound concentration and the test compound concentration (logarithm).
Evaluation Result. […] The inhibitory effect on the hSTING was indicated by marking an IC50 value of less than 0.1 μM with ***, that of 0.1 μM or more and less than 1 μM with **, that of 1 μM or more and less than 10 μM with *, and that of 10 μM or more with “-”.

The target of the next experiment is T2, STING (Homo sapiens, UniProt Q86WV6, G230A/H232R/R293Q/R71H).
T2 construct: host or cells: THP-1 cells, PMA-treated
T2 sequence (Q86WV6 whole entry R71H/G230A/H232R/R293Q): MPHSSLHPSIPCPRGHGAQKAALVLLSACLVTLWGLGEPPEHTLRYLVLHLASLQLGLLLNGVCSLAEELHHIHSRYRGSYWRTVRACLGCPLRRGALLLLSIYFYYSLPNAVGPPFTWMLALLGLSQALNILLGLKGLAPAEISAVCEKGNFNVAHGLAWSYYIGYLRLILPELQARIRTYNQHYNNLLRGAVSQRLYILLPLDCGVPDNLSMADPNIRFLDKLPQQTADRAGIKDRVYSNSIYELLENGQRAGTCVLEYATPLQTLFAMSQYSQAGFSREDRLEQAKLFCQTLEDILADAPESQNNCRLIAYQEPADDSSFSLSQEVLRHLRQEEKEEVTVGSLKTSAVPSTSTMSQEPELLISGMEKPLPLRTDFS
The experiment can be described thus: Inhibition test of human IFN-β production by cGAMP stimulation in THP-1 cells. Type of experiment: cell-based. Conditions: PMA-treated THP-1 cells, 2'3'-cGAMP transfection, 18 hours, ELISA of culture supernatant; read-out: Inhibitory effect on the IFN-β production. How it is done:
The human monocytic cell line THP-1 cells were used to measure the amount of IFN-β produced when stimulated with the endogenous ligand cGAMP, thereby evaluating the inhibitory activity of the test compounds on STING activation.
After THP-1 cells (manufactured by ATCC) were seeded in 96-well plates, PMA (manufactured by Santa Cruz Biotechnology, Inc.) adjusted to a concentration after addition of 100 nM was added and cultured overnight at a 37° C. in a 5% CO2 incubator (10% FBS, 50 U/mL penicillin/50 μg/mL streptomycin-containing RPMI 1640 medium). To each well of the plate, a test compound solution adjusted to a final concentration of 0.001-1 μM of the test compound was added and cultured in the CO2 incubator for 1 hour (DMSO final concentration of 0.1%). 0.12 μg/well of 2′3′-cGAMP (manufactured by ChemieTek, #CT-CGAMP) was introduced into the cells by transfection method using Lipofectamine 2000 (manufactured by Invitrogen) and cultured in the CO2 incubator for another 18 hours. After collecting the culture supernatant from each well, the amount of human IFN-P production in the culture supernatant was measured by ELISA method using R&D human IFN-β Duoset (manufactured by R&D systems).
Method for Evaluating Inhibitory Activity. Taking the amount of human IFN-β production in the group without test compounds added and with cGAMP added as 100% and the amount of human IFN-β production in the group without test compounds added and without cGAMP added as 0%, IC50 values were determined by regression analysis of the inhibition rate calculated from the amount of human IFN-β production at each compound concentration and the test compound concentration (logarithm).
Evaluation Result. […] The inhibitory effect on the IFN-β production was indicated by marking an IC50 value of less than 0.01 μM with ***, that of 0.01 μM or more and less than 0.1 μM with **, that of 0.1 μM or more and less than 1 μM with *, and that of 1 μM or more with “-”, and NT was marked as unmeasured.
A general note: An ELISA detects its analyte on a solid surface through an enzyme-linked reagent.

The structures appear in SMILES notation. Where a name gives a salt, the structure may show the parent alone.

T1 sequence (Q86WV6 whole entry H232R): as the sequence (Q86WV6 whole entry R71H/G230A/H232R/R293Q) above, with H71R, A230G, Q293R counted along it

For the molecule `CNn1c(Nc2c[nH]c3ccc(F)cc23)nc2cc(C(F)(F)F)ccc21` [Example 16, N2-(5-fluoro-1H-indol-3-yl)-N1-methyl-5-(trifluoromethyl)-1H-benzo[d]imidazole-1,2-diamine hydrochloride], the IC50 on hSTING was less than 100 nM; at STING, less than 10 nM.

Take `CCNn1c(Nc2c[nH]c3ccc(Cl)cc23)nc2cc(C(F)(F)F)cc(F)c21` [Example 14, N2-(5-chloro-1H-indol-3-yl)-N1-ethyl-7-fluoro-5-(trifluoromethyl)-1H-benzo[d]imidazole-1,2-diamine]: the IC50 at hSTING is less than 100 nM; on STING, less than 10 nM.

Consider `CCNn1c(Nc2c[nH]c3ccc(Cl)cc23)nc2cc(C(F)(F)F)ccc21` [Example 6, N2-(5-chloro-1H-indol-3-yl)-N1-ethyl-5-(trifluoromethyl)-1H-benzo[d]imidazol-1,2-diamine Hydrochloride], for which the IC50 was less than 100 nM on hSTING and less than 10 nM at STING.

In the case of `CNn1c(Nc2c[nH]c3cc(F)c(F)cc23)nc2cc(C(F)(F)F)c(F)cc21` [Example 10, N2-(5,6-difluoro-1H-indol-3-yl)-6-fluoro-N1-methyl-5-(trifluoromethyl)-1H-benzo[d]imidazole-1,2-diamine], the IC50 is 100 to 1000 nM at hSTING and 10 to 100 nM on STING.

As for `CCNn1c(Nc2c[nH]c3ccc(F)cc23)nc2cc(C(F)(F)F)ccc21` [Example 29, N1-ethyl-N2-(5-fluoro-1H-indol-3-yl)-5-(trifluoromethyl)-1H-benzo[d]imidazole-1,2-diamine], the IC50 on hSTING is less than 100 nM; on STING it was 10 to 100 nM.

On to `CCCNn1c(Nc2c[nH]c3ccc(Cl)cc23)nc2cc(C(F)(F)F)ccc21` [Example 24, N2-(5-chloro-1H-indol-3-yl)-N1-propyl-5-(trifluoromethyl)-1H-benzo[d]imidazole-1,2-diamine], for which the IC50 is less than 100 nM at hSTING and 10 to 100 nM on STING.

In the case of `CCNn1c(Nc2c[nH]c3c(F)cc(F)cc23)nc2cc(C(F)(F)F)cc(F)c21` [Example 22, N2-(5,7-difluoro-1H-indol-3-yl)-N1-ethyl-7-fluoro-5-(trifluoromethyl)-1H-benzo[d]imidazole-1,2-diamine hydrochloride], the IC50 was less than 100 nM at hSTING and 10 to 100 nM at STING.

For the molecule `CNn1c(Nc2c[nH]c3ccc(Cl)nc23)nc2cc(C(F)(F)F)ccc21` [Example 26, N2-(5-chloro-1H-pyrrolo[3,2-b]pyridin-3-yl)-N1-methyl-5-(trifluoromethyl)-1H-benzo[d]imidazole-1,2-diamine hydrochloride], the IC50 at hSTING was in the range of 1000 to 10000 nM; on STING, 100 to 1000 nM.

On to `CNn1c(Nc2c[nH]c3ccc(C)c(F)c23)nc2cc(C(F)(F)F)ccc21` [Example 17, N2-(4-fluoro-5-methyl-1H-indol-3-yl)-N1-methyl-5-(trifluoromethyl)-1H-benzo[d]imidazole-1,2-diamine hydrochloride], for which the IC50 on hSTING is less than 100 nM; on STING it was less than 10 nM.

`CNn1c(Nc2c[nH]c3cc(F)c(F)cc23)nc2cc(C(F)(F)F)ccc21` [Example 4, N2-(5,6-difluoro-1H-indol-3-yl)-N1-methyl-5-(trifluoromethyl)-1H-benzo[d]imidazol-1,2-diamine]: the IC50 on hSTING is less than 100 nM; on STING, less than 10 nM.

Consider `CC(C)Nn1c(Nc2c[nH]c3ccc(Cl)cc23)nc2cc(C(F)(F)F)ccc21` [Example 20, N2-(5-chloro-1H-indol-3-yl)-N1-isopropyl-5-(trifluoromethyl)-1H-benzo[d]imidazole-1,2-diamine], for which the “Inhibitory Activity on hSTING” value at hSTING was “* *”.

Turning to `CCNn1c(Nc2c[nH]c3c(F)cc(F)cc23)nc2cc(C(F)(F)F)ccc21` [Example 19, N2-(5,7-difluoro-1H-indol-3-yl)-N1-ethyl-5-(trifluoromethyl)-1H-benzo[d]imidazole-1,2-diamine], the IC50 at hSTING was less than 100 nM; on STING it was less than 10 nM.

Turning to `CNn1c(Nc2c[nH]c3c(F)cc(F)cc23)nc2cc(C(F)(F)F)ccc21` [Example 5, N2-(5,7-difluoro-1H-indol-3-yl)-N1-methyl-5-(trifluoromethyl)-1H-benzo[d]imidazol-1,2-diamine], the IC50 on hSTING was less than 100 nM; at STING, less than 10 nM.

`Nn1c(Nc2c[nH]c3ccc(Cl)cc23)nc2cc(C(F)(F)F)ccc21` [Example 1, N2-(5-chloro-1H-indol-3-yl)-5-(trifluoromethyl)-1H-benzo[d]imidazol-1,2-diamine Hydrochloride]: the IC50 is less than 100 nM at hSTING and less than 10 nM at STING.

Turning to `CCNn1c(Nc2c[nH]c3cc(F)c(F)cc23)nc2cc(C(F)(F)F)ccc21` [Example 15, N2-(5,6-difluoro-1H-indol-3-yl)-N1-ethyl-5-(trifluoromethyl)-1H-benzo[d]imidazole-1,2-diamine], the IC50 on hSTING was less than 100 nM; on STING it was less than 10 nM.

Take `Nn1c(Nc2c[nH]c3ccc(Cl)cc23)nc2cc(C(F)(F)F)c(F)cc21` [Example 7, N2-(5-chloro-1H-indol-3-yl)-6-fluoro-5-(trifluoromethyl)-1H-benzo[d]imidazole-1,2-diamine hydrochloride]: the IC50 on hSTING is less than 100 nM; on STING, less than 10 nM.

Regarding `CNn1c(Nc2c[nH]c3cc(F)c(C)cc23)nc2cc(C(F)(F)F)ccc21` [Example 18, N2-(6-fluoro-5-methyl-1H-indol-3-yl)-N1-methyl-5-(trifluoromethyl)-1H-benzo[d]imidazole-1,2-diamine], the IC50 was less than 100 nM at hSTING and less than 10 nM at STING.

As to `CNn1c(Nc2c[nH]c3ncc(Cl)cc23)nc2cc(C(F)(F)F)ccc21` [Example 27, N2-(5-chloro-1H-pyrrolo[2,3-b]pyridin-3-yl)-N1-methyl-5-(trifluoromethyl)-1H-benzo[d]imidazole-1,2-diamine hydrochloride], the IC50 on hSTING and at STING was 100 to 1000 nM throughout.

Regarding `Cc1ccc2[nH]cc(Nc3nc4cc(C(F)(F)F)c(F)cc4n3N)c2c1` [Example 9, 6-fluoro-N2-(5-methyl-1H-indol-3-yl)-5-(trifluoromethyl)-1H-benzo[d]imidazole-1,2-diamine hydrochloride], the IC50 on hSTING is 100 to 1000 nM; on STING, less than 10 nM.

For the molecule `CNn1c(Nc2c[nH]c3c(F)cc(F)cc23)nc2cc(C(F)(F)F)cc(F)c21` [Example 13, N2-(5,7-difluoro-1H-indol-3-yl)-7-fluoro-N1-methyl-5-(trifluoromethyl)-1H-benzo[d]imidazole-1,2-diamine hydrochloride], the values for the IC50 at hSTING and at STING were less than 100 nM and less than 10 nM, respectively.

Consider `CNn1c(Nc2c[nH]c3ccc(C)cc23)nc2cc(C(F)(F)F)c(F)cc21` [Example 8, 6-fluoro-N1-methyl-N2-(5-methyl-1H-indol-3-yl)-5-(trifluoromethyl)-1H-benzo[d]imidazole-1,2-diamine], for which the IC50 on hSTING is less than 100 nM; on STING, less than 10 nM.

`CNn1c(Nc2c[nH]c3ccc(F)c(F)c23)nc2cc(C(F)(F)F)ccc21` [Example 3, N2-(4,5-difluoro-1H-indol-3-yl)-N1-methyl-5-(trifluoromethyl)-1H-benzo[d]imidazol-1,2-diamine Hydrochloride]: the IC50 is less than 100 nM on hSTING and less than 10 nM on STING.

For the origin of these results see patent US12037325B2, “1,2-diaminobenzimidazole derivative” (Carna Biosciences, Inc., priority 2021, dated 2024).
